Test results as given in patent US20160228444A1, “NUCLEOSIDE ANALOGS AND USES THEREOF” (Ramot at Tel-Aviv University Ltd., priority 2015, published 2016).
Like-named read-outs stand apart in the source and are kept apart here. One block for each compound: values may come before it.

What was measured:
[1] = system: U251 human glioblastoma xenograft; test: Glioblastoma xenograft model (survival, body weight, tumor volume, tumor weight, Ki-67); details: for tumor volume of vehicle-treated group relative to treated group: from day 11, FIG. 3C
Description: Xenograft of glioblastoma: 8- to 10-week-old male Hsd athymic FOXN (Harlan, Jerusalem, Israel) were inoculated sc in the flanks with 5×10^6 U251 cells. Tumor length (L) and width (W) were measured with a caliper twice weekly. Tumor volumes were calculated according to the formula: (L×W2)/2. When the tumor was established (volume of 50-100 mm^3) the mice were randomly divided into six groups treated with: vehicle control (saline); ip Dox 4 mg/kg once weekly; po AN446 25 mg/kg thrice a week; po AN7 50 mg/kg thrice a week; combination of AN446+Dox (4 mg/kg ip Dox once a week and 25 mg/kg po AN446 thrice a week); AN7+Dox (4 mg/kg ip Dox once a week and 50 mg/kg po AN7 thrice weekly). Untreated, non-bearing tumor naive mice were maintained under the same conditions. The experiment was terminated after 25 treatment days, the mice were sacrificed under CO2 and their tumors and hearts were removed, weighed and divided into parts dedicated for immunohistochemistry (IHC) and the rest were frozen (−80° C.) for Western blot and Quantitative PCR (qRT-PCR) analyses.
Inactivation of avidin-biotin nonspecific binding was prevented by a blocking kit, according to the manufacturer's protocol (Vector Laboratories). […] The secondary antibody was biotin conjugated goat anti-rabbit or anti-mouse IgG. Slides were then stained with the ABC peroxidase system, developed with diaminobenzidine (DAB) (Vector Laboratories) and counterstained with hematoxylin (Bio-Optica, Milano, Italy). The slides were examined using an Olympus BX 52 light microscope, and images were taken with an Olympus DP50 digital camera system.
Mice were implanted subcutaneously with U251 cells and when the tumors reached 50-100 mm^3 treatments were initiated. Survival was evaluated by the Kaplan-Meier end-product analysis, where treatment failure (the experimental end points) was a loss of ˜20% body weight, or a tumor volume of >1 cm^3.

HO-1 = HO-1 protein and mRNA in tumor and heart of xenograft mice (Western blot, qRT-PCR); type: in vivo; details: heart
Description: (§1) Tumors and hearts of the mice were rapidly removed, frozen on dry ice and kept at −70° C. Tissue was then homogenized and RNA and proteins extracted using the NucleoSpin® RNA/Protein kit according to the manufacturer's protocol (Macherey-Nagel, GmbH & Co KG).
(§2) Total RNA ([…]) was primed by oligo dT and reverse-transcribed by Verso cDNA kit according to the manufacturer's protocol (Thermo Scientific). Analyses of qPCR were performed with Kapa Sybr® Fast (Kapa Biosystems) on a Step One Plus thermocycler (Applied Biosystems). The comparative threshold method was used to calculate the relative gene expression. Values were normalized against glyceraldehyde 3-phosphate dehydrogenase (GAPDH). Expression of the GAPDH mRNA in each individual sample was used to normalize the dataset. The sequences of the primers were as follows: […]
(§3) Protein levels in the samples were determined with the BCA protein assay kit (Pierce). The samples were subjected to Western blot analyses. The expression of proteins was visualized using their specified primary antibodies followed by the secondary IgG IRDye® 680DX antibody. Each detected band was quantified using the Odyssey Infrared Imaging System (LI-COR Biosciences) and normalized to the level of actin. The fold increase of a specific protein was determined by the ratio of the band intensity obtained from treated and untreated samples.
The effect of the drugs on the expression of genes associated with cell survival and death was examined by following changes in transcription and protein expression in tissue samples taken from the mice with glioblastoma xenografts. Heme oxygenase (HO-1) is known to play a protective role in the heart, whereas, in many cancers it is expressed and promotes growth and survival of neoplastic cells.

c-Myc = c-Myc and p-c-Myc (Thr 58) Western blot in tumor and heart of xenograft mice; type: in vivo
Description: as §3
The c-Myc protein is an important regulator of normal cell physiology and in tumor cells it plays an important role in activating oncogenic pathways [Soucek & Evan, Curr Opin Genet Dev 2010, 20:91-95].

VEGF = VEGF immunohistochemistry in tumor and heart of xenograft mice; type: in vivo; details: FIG. 4F
Description: (§4) The pro-angiogenic factors basic fibroblast growth factor (bFGF) and vascular endothelial growth factor (VEGF) are potent angiogenic stimulators. The expression of bFGF in the tumor and in the heart was evaluated by Western blot and qRT-PCR analyses and expression of VEGF by IHC.

bFGF = bFGF protein and mRNA in tumor and heart of xenograft mice (Western blot, qRT-PCR); type: in vivo; details: for expression of mouse bFGF protein in the heart: FIG. 4D; for expression of bFGF in tumors / bFGF mRNA in the tumor: tumor; for bFGF mRNA in the tumor: FIG. 6
Description: as §1, §2, §3, §4

TLR4 [2] = details: 24 hours, concentrations based on the IC50, FIG. 15
T47D cells = test: Median-effect drug interaction, Hoechst viability, 72 h; type: cell-based, human; details: for IC50: Homo sapiens
Description: (§5) The ratios of the drug combination were based on the ratio of their IC50 of each drug alone. Cell viability was determined by MTT assay, as described hereinabove. The drugs were added to the cells and incubated for 72 h.
(§6) Drug interaction in adherent cells was evaluated as above except that the viability was determined by Hoechst assay.

U251 cells = test: Hoechst viability assay 72 h / median-effect combination study; details: Homo sapiens, U-251, 72 h, read-out: IC50 value for viability in U251 cells after 72 hours
Description: Hoechst assay: 22RV-1, MCF-7, MCF-7DX, 4T1, U251, and T47D cells (3×10^3 cells/well) and NCI-N87 (8×10^3 cells/well) were seeded in tissue culture in growth medium for 24 h in 96-well plates (in triplicate) and then exposed to different concentrations (titration) of the tested drug for 72 h at 37° C. The plates were then rinsed with PBS and fixed with 100 ml of 70% ethanol for 30 min. […] The fluorescence was measured (excitation at 390 nm and emission at 460 nm) with a Synergy III Fluorometer-Elisa reader (BioTek Instruments, Inc. Germany).
The Median Effect Analysis (MEA) for a constant combination ratio was used for drugs interaction and the combination index (CI) determination.
The average values of three independent experiments were calculated and analyzed with CalcuSyn software.

TLR4 [3] = test: TLR4 gene expression in MDA-MB-231 cells (qRT-PCR); type: cell-based, human; details: single agent, FIG. 7C
Description: (§7) The effect of AN446 on inflammation-associated pathways was evaluated in the monocytic THP1 cell line and in the MDA-MB-231 breast carcinoma cell line. Supernatants of treated THP1 cells were collected and IL-6, IL-10 and TNF-α concentrations were quantified by ELISA (R&D systems). TLR4 expression in THP1 cells was assessed using fluorescent anti-TLR4 antibodies and FACS analysis. In addition, gene expression for MCP-1, TNF-α and TLR4 in MDA-MB-231 was evaluated by qRT-PCT, following treatment with AN446 and/or paclitaxel.

TNF-α = TNF-α gene expression in MDA-MB-231 cells (qRT-PCR); type: cell-based, human; details: single agent, FIG. 7C
Description: as §7

MDA-231 cells = test: Median-effect drug interaction, Hoechst viability, 72 h; type: cell-based, human; details: for IC50: Homo sapiens
Description: as §5, §6

[4] = system: NCI-N87 gastric carcinoma cells; test: as above; type: cell-based, human; details: Homo sapiens
Description: as §5, §6

MCP-1 = MCP-1 gene expression in MDA-MB-231 cells (qRT-PCR); type: cell-based, human; details: single agent, FIG. 7C
Description: as §7

Compound: CCCC(=O)OCOP(=O)(OCC)OCC [AN7, butyroxymethyl diethylphosphate]
- survival of mice when added to Dox treatment ([1]; added to Dox 4 mg/kg ip once a week, day 25, FIG. 3A): 100%
- body weight loss when added to Dox treatment ([1]; added to Dox 4 mg/kg, FIG. 3B): significant attenuation of body weight loss
- Ki-67 positive (proliferating) cells in tumors ([1]; in combination with Dox, FIG. 3F): reduced the proliferating cells to a level significantly lower than any of the single drug treatments
- tumor volume of vehicle-treated group relative to treated group ([1]; in combination with Dox): 3 fold
- Ki-67 positive cells in tumors ([1]; single agent vs vehicle, FIGS. 3E, 3F): considerably more Ki-67 positive cells were detected in tumors of the vehicle-treated mice
- tumor volume of vehicle-treated group relative to treated group ([1]; single agent): 2 fold
- survival of mice until end of experiment (day 25) ([1]; single agent: AN446 25 mg/kg or AN7 50 mg/kg po thrice weekly, Dox 4 mg/kg ip once a week, FIG. 3A): 100%
- HO-1 expression in the heart (HO-1; co-treatment with Dox): increased the expression of this enzyme to a significantly higher level
- HO-1 mRNA in the heart, elevation of basal expression level (HO-1; co-treatment with Dox): 1.76±0.36 fold
- HO-1 expression in the heart (decrease) (HO-1; single agent, FIGS. 4D, 4E): did not significantly change
- c-Myc protein expression in the hearts (c-Myc; heart, FIG. 5B): not affected
- c-Myc protein expression in tumors (c-Myc; tumor, FIG. 5A): decreased dramatically
- VEGF expression in the heart (VEGF): elevated
- expression of mouse bFGF protein in the heart (bFGF; co-treatment with Dox): significantly increased its expression to a level higher than that observed in naive or vehicle-treated mice
- expression of mouse bFGF protein in the heart (bFGF; single agent): unchanged
- expression of bFGF in tumors (bFGF; combination with Dox): further diminished
- bFGF mRNA in the tumor (bFGF; combined treatment with Dox): suppressed it significantly further
- bFGF mRNA in the tumor (bFGF; single agent): significantly reduced the bFGF mRNA
- expression of bFGF in tumors (bFGF; single agent, FIGS. 4A, 4B): decreased significantly

Compound: CC(=O)O[C@H]1C(=O)[C@@]2(C)[C@H]([C@H](OC(=O)c3ccccc3)[C@]3(O)C[C@H](OC(=O)[C@H](O)[C@@H](NC(=O)c4ccccc4)c4ccccc4)C(C)=C1C3(C)C)[C@]1(OC(C)=O)CO[C@@H]1C[C@@H]2O [Paclitaxel, paclitaxel]
- expression of TLR4 (TLR4 [3]): paclitaxel-induced increase
- expression of TNF-α (TNF-α): paclitaxel-induced increase
- IC50 (MDA-231 cells; MDA-MB-231, MDA-231, paclitaxel in combination with AN446, read-out: Paclitaxel com IC50): 0.0017 ± 1e-05 µM
- IC50 (MDA-231 cells; MDA-MB-231, MDA-231, paclitaxel in combination with SAHA, read-out: Paclitaxel com IC50): 0.0015 µM
- IC50 (MDA-231 cells; MDA-MB-231, MDA-231, paclitaxel in combination with valproic acid, read-out: Paclitaxel com IC50): 0.0016 ± 1e-05 µM
- IC50 (MDA-231 cells; MDA-MB-231, MDA-231, single agent, read-out: Paclitaxel IC50): 0.0044 ± 0.0002 µM
- IC50 (T47D cells; paclitaxel in combination with AN446, read-out: Paclitaxel com IC50): 0.0028 ± 0.0001 µM
- IC50 (T47D cells; paclitaxel in combination with SAHA, read-out: Paclitaxel com IC50): 0.0023 ± 1e-05 µM
- IC50 (T47D cells; paclitaxel in combination with valproic acid, read-out: Paclitaxel com IC50): 0.0036 ± 0.0001 µM
- IC50 (T47D cells; single agent, read-out: Paclitaxel IC50): 0.0032 ± 0.0001 µM
- IC50 ([4]; NCI-N87, paclitaxel in combination with AN446, read-out: Paclitaxel com IC50): 1.8 ± 0.2 nM
- IC50 ([4]; NCI-N87, single agent, read-out: Paclitaxel IC50): 4 nM
- expression of MCP-1 (MCP-1): paclitaxel-induced increase

Compound: CCCC(CCC)C(=O)O [Valproic acid, valproic acid]
- IC50 (U251 cells): 3000 µM
- IC50 (MDA-231 cells; MDA-MB-231, MDA-231, in combination with paclitaxel, read-out: com IC50): 1600 ± 10 µM
- IC50 (MDA-231 cells; MDA-MB-231, MDA-231, single agent, Table 3, read-out: IC50): 3900 ± 200 µM
- CI (combination index with paclitaxel) (MDA-231 cells; MDA-231): 0.8
- CI (combination index with paclitaxel) (T47D cells): 1.1
- IC50 (T47D cells; in combination with paclitaxel, read-out: com IC50): 1800 ± 100 µM
- IC50 (T47D cells; single agent, Table 3, read-out: IC50): 4400 ± 300 µM

Compound: C/C=C1\NC(=O)[C@H]2CSSCC/C=C/[C@H](CC(=O)N[C@H](C(C)C)C(=O)N2)OC(=O)[C@H](C(C)C)NC1=O [romidepsin]
- IC50 (U251 cells): 0.001 µM

The next lines start with results.

- IC50 (T47D cells; in combination with Dox, read-out: com IC50): 0.13 µM
Compound: O=C(CCCCCCC(=O)Nc1ccccc1)NO [SAHA, suberanilohydroxamic acid]
- TLR4 expression in MDA-231 cells (TLR4 [2]): no apparent effect on TLR4 expression

- IC50 (U251 cells): 2 µM
Compound: Nc1ccccc1NC(=O)c1ccc(CNC(=O)OCc2cccnc2)cc1 [entinostat]
- TLR4 expression in MDA-231 cells (TLR4 [2]): no apparent effect on TLR4 expression
